Measurements taken from US20230416232A1, “PYRIMIDINE COMPOUNDS, COMPOSITIONS, AND MEDICINAL APPLICATIONS THEREOF” (Blueprint Medicines Corporation, priority 2020, published 2023).
Counter-ions that a name gives are not always drawn.

How the values were obtained:
Format in all cases: cell-based
[1] = target: HER2 (A775_G776insYVMA) expressing Ba/F3 stable cell line (Homo sapiens, UniProt P04626, DUP772-775, cells depend on it); experiment: Cellular proliferation (Alamar Blue) assay, HER2 (A775_G776insYVMA) Ba/F3; settings: HER2 (A775_G776insYVMA) Ba/F3 cells; 72 hr; Alamar Blue; read-out: YVMA IC50
Method: (§1) Cell line details: • 1. EGFR(D770_N771insSVD) expressing Ba/F3 stable cell line • 2. EGFR (A767_dupASV) expressing Ba/F3 stable cell line • 3. A431 cells • 4. EGFR (H773insNPH) expressing Ba/F3 stable cell line • 5. HER2 (A775_G776insYVMA) expressing Ba/F3 stable cell line
(§2) • 1. Seed cells at 5000 for A431 and 15,000 cells for Ba/F3 in 100 μL/well in complete media (for A431: DMEM with 10% FBS and for Ba/F3 cells: RPMI with 10% FBS) in 96-well tissue culture plate. Leave outer wells without cells for background measurements. Incubate at 37 degree Celsius in 5% CO2 humidified incubator for 16-18 hours. • 2. Add 0.025 ml of 5X concentration compound dilution or DMSO control. Final compound concentration range is 10-0.0005 μM prepared in 3-fold serial dilutions. Incubate for 72 hr at 37 degree Celsius in 5% CO2 humidified incubator. • 3. Add 0.0125 ml Alamar Blue™ reagent to each well with multi-channel pipette and tap gently on each side of the plate to mix. Incubate for 3 hours at 37 degree Celsius in 5% CO2 humidified incubator. • 4. […] Data analysis was performed using XLfit 5.5.0.5.

[2] = target: EGFR (A767_dupASV) expressing Ba/F3 stable cell line (Homo sapiens, UniProt P00533, DUP767-769, cells depend on it); experiment: Cellular proliferation (Alamar Blue) assay, EGFR (A767_dupASV) Ba/F3; settings: 72 hr, read-out: A767 IC50
Method: as §1, §2

A431 cells = experiment: Cellular proliferation (Alamar Blue) assay, A431 cells; settings: Homo sapiens, A-431, 72 h, A431 cells; 72 hr; Alamar Blue; read-out: A431 IC50
Method: as §2

[3] = target: EGFR(D770_N771insSVD) expressing Ba/F3 stable cell line (Homo sapiens, UniProt P00533, DUP768-770, cells depend on it); experiment: Cellular proliferation (Alamar Blue) assay, EGFR(D770_N771insSVD) Ba/F3; settings: 72 hr, read-out: D770 IC50
Method: as §1, §2

Chain of HER2 (A775_G776insYVMA) expressing Ba/F3 stable cell line (P04626 with tags, fused parts or gaps DUP772-775): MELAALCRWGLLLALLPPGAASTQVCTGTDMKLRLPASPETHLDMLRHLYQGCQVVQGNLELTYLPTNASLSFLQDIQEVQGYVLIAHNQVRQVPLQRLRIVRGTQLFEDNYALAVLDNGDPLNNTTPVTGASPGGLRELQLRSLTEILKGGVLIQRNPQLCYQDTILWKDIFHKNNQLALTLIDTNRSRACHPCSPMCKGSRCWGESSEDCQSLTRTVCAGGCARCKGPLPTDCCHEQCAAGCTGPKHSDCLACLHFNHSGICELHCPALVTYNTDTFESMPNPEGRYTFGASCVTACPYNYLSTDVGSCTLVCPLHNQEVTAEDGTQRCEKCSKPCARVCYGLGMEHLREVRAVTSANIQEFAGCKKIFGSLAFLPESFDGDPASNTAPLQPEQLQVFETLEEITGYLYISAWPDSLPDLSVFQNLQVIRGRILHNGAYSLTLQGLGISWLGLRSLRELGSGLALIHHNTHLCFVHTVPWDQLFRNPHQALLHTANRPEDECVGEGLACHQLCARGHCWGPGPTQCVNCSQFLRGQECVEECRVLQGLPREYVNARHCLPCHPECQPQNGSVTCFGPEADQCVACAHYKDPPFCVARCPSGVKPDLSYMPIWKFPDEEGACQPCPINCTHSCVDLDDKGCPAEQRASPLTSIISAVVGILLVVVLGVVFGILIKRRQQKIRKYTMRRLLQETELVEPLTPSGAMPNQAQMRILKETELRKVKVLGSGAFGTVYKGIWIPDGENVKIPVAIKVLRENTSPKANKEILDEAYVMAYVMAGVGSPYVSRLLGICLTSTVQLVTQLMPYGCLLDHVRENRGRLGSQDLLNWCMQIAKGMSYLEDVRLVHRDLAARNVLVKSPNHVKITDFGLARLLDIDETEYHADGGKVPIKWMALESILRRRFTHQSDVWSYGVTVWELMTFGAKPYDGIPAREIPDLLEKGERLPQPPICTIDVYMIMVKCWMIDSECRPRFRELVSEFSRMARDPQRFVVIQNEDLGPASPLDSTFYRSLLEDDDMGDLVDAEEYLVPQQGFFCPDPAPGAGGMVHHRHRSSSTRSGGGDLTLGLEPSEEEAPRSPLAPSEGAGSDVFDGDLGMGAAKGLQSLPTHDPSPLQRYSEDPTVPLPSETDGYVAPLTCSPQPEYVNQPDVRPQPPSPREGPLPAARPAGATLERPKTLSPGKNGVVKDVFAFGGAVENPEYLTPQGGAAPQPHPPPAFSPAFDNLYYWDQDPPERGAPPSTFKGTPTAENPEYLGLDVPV
Chain of EGFR(D770_N771insSVD) expressing Ba/F3 stable cell line (P00533 with tags, fused parts or gaps DUP768-770): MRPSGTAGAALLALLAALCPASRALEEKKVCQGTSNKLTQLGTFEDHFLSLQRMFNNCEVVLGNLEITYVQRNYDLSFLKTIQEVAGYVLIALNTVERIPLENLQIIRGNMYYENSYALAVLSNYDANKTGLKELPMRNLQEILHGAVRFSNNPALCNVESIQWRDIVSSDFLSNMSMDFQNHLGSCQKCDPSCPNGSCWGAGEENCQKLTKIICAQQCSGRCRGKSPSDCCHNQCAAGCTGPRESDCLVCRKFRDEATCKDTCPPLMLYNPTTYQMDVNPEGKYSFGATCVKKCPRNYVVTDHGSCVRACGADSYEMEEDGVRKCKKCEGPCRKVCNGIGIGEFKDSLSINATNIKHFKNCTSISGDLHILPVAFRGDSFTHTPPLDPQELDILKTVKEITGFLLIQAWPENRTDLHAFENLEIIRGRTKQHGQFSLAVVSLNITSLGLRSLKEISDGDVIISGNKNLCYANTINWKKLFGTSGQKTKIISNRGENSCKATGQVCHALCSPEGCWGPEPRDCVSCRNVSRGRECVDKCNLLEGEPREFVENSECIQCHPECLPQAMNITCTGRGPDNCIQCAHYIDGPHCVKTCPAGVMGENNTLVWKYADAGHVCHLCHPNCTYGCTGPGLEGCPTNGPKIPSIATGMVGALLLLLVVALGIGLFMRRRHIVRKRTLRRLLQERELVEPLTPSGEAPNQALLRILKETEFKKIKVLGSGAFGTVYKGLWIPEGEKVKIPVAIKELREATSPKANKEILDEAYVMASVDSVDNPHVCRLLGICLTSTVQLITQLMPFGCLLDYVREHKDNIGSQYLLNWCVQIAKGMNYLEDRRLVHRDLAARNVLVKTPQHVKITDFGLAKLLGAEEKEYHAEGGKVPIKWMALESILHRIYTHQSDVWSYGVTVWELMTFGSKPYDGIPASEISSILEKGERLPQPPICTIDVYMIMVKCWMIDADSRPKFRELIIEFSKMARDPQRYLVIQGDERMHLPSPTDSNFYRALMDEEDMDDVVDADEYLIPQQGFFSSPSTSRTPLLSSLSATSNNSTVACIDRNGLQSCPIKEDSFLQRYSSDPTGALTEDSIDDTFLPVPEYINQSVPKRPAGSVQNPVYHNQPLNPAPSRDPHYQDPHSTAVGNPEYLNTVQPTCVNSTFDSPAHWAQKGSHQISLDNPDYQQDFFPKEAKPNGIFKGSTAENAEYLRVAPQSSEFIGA
Chain of EGFR (A767_dupASV) expressing Ba/F3 stable cell line (P00533 with tags, fused parts or gaps DUP767-769): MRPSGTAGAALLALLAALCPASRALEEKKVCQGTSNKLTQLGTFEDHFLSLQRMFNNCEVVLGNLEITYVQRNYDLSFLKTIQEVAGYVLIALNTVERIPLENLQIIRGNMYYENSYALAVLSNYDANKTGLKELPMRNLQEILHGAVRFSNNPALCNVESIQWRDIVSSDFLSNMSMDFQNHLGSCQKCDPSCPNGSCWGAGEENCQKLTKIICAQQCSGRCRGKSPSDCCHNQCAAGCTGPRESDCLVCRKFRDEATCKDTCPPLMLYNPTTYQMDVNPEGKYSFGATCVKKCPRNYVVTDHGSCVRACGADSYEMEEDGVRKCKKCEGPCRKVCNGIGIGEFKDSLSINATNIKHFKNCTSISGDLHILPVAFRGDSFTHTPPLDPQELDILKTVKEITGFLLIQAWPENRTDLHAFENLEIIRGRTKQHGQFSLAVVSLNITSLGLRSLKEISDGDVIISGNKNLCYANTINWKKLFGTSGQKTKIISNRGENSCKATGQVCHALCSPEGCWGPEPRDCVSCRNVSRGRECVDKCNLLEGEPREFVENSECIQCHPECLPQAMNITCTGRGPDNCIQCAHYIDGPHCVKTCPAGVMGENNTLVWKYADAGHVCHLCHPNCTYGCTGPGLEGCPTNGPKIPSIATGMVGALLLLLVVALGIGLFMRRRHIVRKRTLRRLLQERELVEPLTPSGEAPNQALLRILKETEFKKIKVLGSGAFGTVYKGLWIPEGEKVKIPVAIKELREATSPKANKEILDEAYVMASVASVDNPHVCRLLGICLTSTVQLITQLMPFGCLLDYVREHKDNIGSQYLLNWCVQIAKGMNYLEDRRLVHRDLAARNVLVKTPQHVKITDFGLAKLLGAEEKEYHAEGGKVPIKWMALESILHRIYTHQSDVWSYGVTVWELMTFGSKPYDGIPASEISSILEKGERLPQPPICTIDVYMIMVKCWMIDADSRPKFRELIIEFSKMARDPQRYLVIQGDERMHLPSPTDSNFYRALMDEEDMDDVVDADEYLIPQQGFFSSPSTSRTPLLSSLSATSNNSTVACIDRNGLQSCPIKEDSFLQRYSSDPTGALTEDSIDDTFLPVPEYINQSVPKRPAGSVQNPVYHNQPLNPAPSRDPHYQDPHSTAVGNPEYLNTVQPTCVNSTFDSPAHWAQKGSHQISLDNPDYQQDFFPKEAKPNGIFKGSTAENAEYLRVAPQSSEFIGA

SMILES: C=CC(=O)Nc1ccc(F)c(Nc2nc(Nc3cnn(C)c3)ncc2-c2cnc(C(F)(F)F)c(F)c2)c1 [Compound 61, N-(4-fluoro-3-((5-(5-fluoro-6-(trifluoromethyl)pyridin-3-yl)-2-((l-methyl-1H-pyrazol-4-yl)amino)pyrimidin-4-yl)amino)phenyl)acrylamide]
- GI50 [1]: 0.037 µM
- GI50 [2]: 0.011 µM

SMILES: C=CC(=O)Nc1ccc(F)c(Nc2nc(Nc3cnn(C)c3)ncc2-c2ccc(Br)cc2F)c1 [Compound 112, N-(3-((5-(4-bromo-2-fluorophenyl)-2-((1-methyl-1H-pyrazol-4-yl)amino)pyrimidin-4-yl)amino)-4-fluorophenyl)acrylamide]
- GI50 [1]: 0.923 µM
- IC50 (A431 cells): 0.497 µM

SMILES: C=CC(=O)Nc1ccc(F)c(Nc2nc(Nc3cnn(C)c3)ncc2-c2cc(F)cc(OCC3CC3)c2)c1 [Compound 130, N-(3-((5-(3-(cyclopropylmethoxy)-5-fluorophenyl)-2-((1-methyl-1H-pyrazol-4-yl)amino)pyrimidin-4-yl)amino)-4-fluorophenyl)acrylamide]
- GI50 [1]: > 10 µM
- IC50 (A431 cells): > 10 µM

SMILES: COc1cc(F)cc(-c2cnc(Nc3cnn(C)c3)nc2Nc2cc(NC(=O)/C=C/CN(C)C)ccc2F)c1 [Compound 144, (E)-4-(dimethylamino)-N-(4-fluoro-3-((5-(3-fluoro-5-methoxyphenyl)-2-((1-methyl-1H-pyrazol-4-yl)amino)pyrimidin-4-yl)amino)phenyl)but-2-enamide]
- GI50 [1]: 0.97 µM
- IC50 (A431 cells): 4.88 µM

SMILES: C=CC(=O)Nc1ccc(F)c(Nc2nc(Nc3cnn(C)c3)ncc2-c2ccc(Br)c(C(F)F)c2)c1 [Compound 118, N-(3-((5-(4-bromo-3-(difluoromethyl)phenyl)-2-((1-methyl-1H-pyrazol-4-yl)amino)pyrimidin-4-yl)amino)-4-fluorophenyl)acrylamide]
- GI50 [1]: 0.352 µM
- IC50 (A431 cells): 0.215 µM

SMILES: Cn1cc(Nc2ncc(-c3ccc(Br)c(F)c3)c(Nc3cc(NC(=O)/C=C/CN4CCCCC4)ccc3F)n2)cn1 [Compound 142, (E)-N-(3-((5-(4-bromo-3-fluorophenyl)-2-((1-methyl-1H-pyrazol-4-yl)amino)pyrimidin-4-yl)amino)-4-fluorophenyl)-4-(piperidin-1-yl)but-2-enamide]
- GI50 [1]: 0.738 µM
- IC50 (A431 cells): 0.301 µM

SMILES: C=CC(=O)Nc1ccc(F)c(Nc2nc(Nc3cnn(C)c3)ncc2-c2cc(OC)cc(OC)c2)c1 [Compound 116, N-(3-((5-(3,5-dimethoxyphenyl)-2-((1-methyl-1H-pyrazol-4-yl)amino)pyrimidin-4-yl)amino)-4-fluorophenyl)acrylamide]
- GI50 [1]: > 10 µM
- IC50 (A431 cells): 3.52 µM

SMILES: C=CC(=O)Nc1ccc(F)c(Nc2nc(Nc3cn(C)nc3Cl)ncc2-c2ccc(OC)c(OC)c2)c1 [Compound 110, N-(3-((2-((3-chloro-1-methyl-1H-pyrazol-4-yl)amino)-5-(3,4-dimethoxyphenyl)pyrimidin-4-yl)amino)-4-fluorophenyl)acrylamide]
- GI50 [1]: 5.78 µM
- IC50 (A431 cells): 0.819 µM

SMILES: C=CC(=O)Nc1ccc(F)c(Nc2nc(Nc3cnn(C)c3)ncc2-c2ccc(Br)c(OC)c2)c1 [Compound 134, N-(3-((5-(4-bromo-3-methoxyphenyl)-2-((1-methyl-1H-pyrazol-4-yl)amino)pyrimidin-4-yl)amino)-4-fluorophenyl)acrylamide]
- GI50 [1]: 0.453 µM
- IC50 (A431 cells): 0.238 µM

SMILES: C=CC(=O)Nc1ccc(F)c(Nc2nc(Nc3cnn(C)c3)ncc2-c2cc(F)c(N(C)C)c(F)c2)c1 [Compound 156, N-(3-((5-(4-(dimethylamino)-3,5-difluorophenyl)-2-((1-methyl-1H-pyrazol-4-yl)amino)pyrimidin-4-yl)amino)-4-fluorophenyl)acrylamide]
- GI50 [1]: 0.309 µM
- IC50 (A431 cells): 0.019 µM

SMILES: C=CC(=O)Nc1ccc(F)c(Nc2nc(Nc3cnn(C)c3)ncc2-c2cc(F)cc(N3CCC3)c2)c1 [Compound 120, N-(3-((5-(3-(azetidin-1-yl)-5-fluorophenyl)-2-((1-methyl-1H-pyrazol-4-yl)amino)pyrimidin-4-yl)amino)-4-fluorophenyl)acrylamide]
- GI50 [1]: > 10 µM
- IC50 (A431 cells): 9.28 µM

SMILES: C=CC(=O)Nc1ccc(F)c(Nc2nc(Nc3cnn(C)c3)ncc2-c2cc(F)cc(OC(C)C)c2)c1 [Compound 129, N-(4-fluoro-3-((5-(3-fluoro-5-isopropoxyphenyl)-2-((1-methyl-1H-pyrazol-4-yl)amino)pyrimidin-4-yl)amino)phenyl)acrylamide]
- GI50 [1]: > 10 µM
- IC50 (A431 cells): > 10 µM

SMILES: C=CC(=O)Nc1ccc(F)c(Nc2nc(Nc3cnn(C)c3)ncc2-c2cc(F)c(C(F)(F)F)c(F)c2)c1 [Compound 20, N-(3-((5-(3,5-difluoro-4-(trifluoromethyl)phenyl)-2-((1-methyl-1H-pyrazol-4-yl)amino)pyrimidin-4-yl)amino)-4-fluorophenyl)acrylamide trifluoroacetate]
- GI50 [1]: 0.164 µM
- GI50 [2]: 0.061 µM
- IC50 (A431 cells): 0.013 µM

SMILES: C=CC(=O)Nc1cccc(Nc2nc(Nc3cnn(C)c3)ncc2-c2cc(F)c(F)c(F)c2)c1 [Compound 148, N-(3-((2-((1-methyl-1H-pyrazol-4-yl)amino)-5-(3,4,5-trifluorophenyl)pyrimidin-4-yl)amino)phenyl)acrylamide]
- GI50 [1]: 0.045 µM
- GI50 [3]: 0.01 µM
- IC50 (A431 cells): 0.029 µM

SMILES: [2H]C([2H])([2H])n1cc(Nc2ncc(-c3ccc(Br)c(F)c3)c(Nc3cc(NC(=O)C=C)ccc3F)n2)cn1 [Compound 169, N-(3-((5-(4-bromo-3-fluorophenyl)-2-((1-(methyl-d3)-1H-pyrazol-4-yl)amino)pyrimidin-4-yl)amino)-4-fluorophenyl)acrylamide]
- GI50 [1]: 0.147 µM
- GI50 [3]: 0.036 µM
- IC50 (A431 cells): 0.011 µM

SMILES: C=CC(=O)Nc1ccc(F)c(Nc2nc(Nc3cnn(C)c3)ncc2-c2cc(F)cc(N3CCCC3)c2)c1 [Compound 121, N-(4-fluoro-3-((5-(3-fluoro-5-(pyrrolidin-1-yl)phenyl)-2-((1-methyl-1H-pyrazol-4-yl)amino)pyrimidin-4-yl)amino)phenyl)acrylamide]
- GI50 [1]: > 10 µM
- IC50 (A431 cells): > 10 µM

SMILES: [2H]c1ccc(NC(=O)C=C)cc1Nc1nc(Nc2cnn(C)c2)ncc1-c1cc(F)cc(OC)c1 [Compound 145, N-(3-((5-(3-fluoro-5-methoxyphenyl)-2-((1-methyl-1H-pyrazol-4-yl)amino)pyrimidin-4-yl)amino)phenyl-4-d)acrylamide]
- GI50 [1]: 0.264 µM
- IC50 (A431 cells): 0.388 µM

SMILES: C=CC(=O)Nc1ccc(F)c(Nc2nc(Nc3cnn(C)c3)ncc2-c2ccc3c(c2)OC(C)(C)O3)c1 [Compound 114, N-(3-((5-(2,2-dimethylbenzo[d][1,3]dioxol-5-yl)-2-((1-methyl-1H-pyrazol-4-yl)amino)pyrimidin-4-yl)amino)-4-fluorophenyl)acrylamide]
- GI50 [1]: 4.57 µM
- IC50 (A431 cells): 0.077 µM

SMILES: C=CC(=O)Nc1ccc(F)c(Nc2nc(Nc3cnn(C)c3)ncc2-c2ccc(Br)c(N(C)C)c2)c1 [Compound 119, N-(3-((5-(4-bromo-3-(dimethylamino)phenyl)-2-((1-methyl-1H-pyrazol-4-yl)amino)pyrimidin-4-yl)amino)-4-fluorophenyl)acrylamide]
- GI50 [1]: 5.2 µM
- IC50 (A431 cells): 1.16 µM

SMILES: O=C(O)C(F)(F)F.[2H]C([2H])([2H])n1cc(Nc2ncc(-c3cnc(F)c(F)c3)c(Nc3cc(NC(=O)C=C)ccc3F)n2)cn1 [Compound 101, N-(3-((5-(5,6-difluoropyridin-3-yl)-2-((1-(methyl-d3)-1H-pyrazol-4-yl)amino)pyrimidin-4-yl)amino)-4-fluorophenyl)acrylamide]
- GI50 [3]: 0.015 µM

SMILES: C=CC(=O)Nc1ccc(F)c(Nc2nc(Nc3cnn(C)c3)ncc2-c2ccc(OCc3cccc(F)c3)c(Cl)c2)c1 [Compound 122, N-{3-[(5-{3-chloro-4-[(3-fluorophenyl)methoxy]phenyl}-2-[(1-methyl-1H-pyrazol-4-yl)amino]pyrimidin-4-yl)amino]-4-fluorophenyl}prop-2-enamide]
- GI50 [1]: 0.669 µM
- IC50 (A431 cells): 0.29 µM

SMILES: C=CC(=O)Nc1ccc(F)c(Nc2nc(Nc3cnn(C)c3)ncc2-c2ccc(F)cc2C(F)(F)F)c1 [Compound 107, N-(4-fluoro-3-((5-(4-fluoro-2-(trifluoromethyl)phenyl)-2-((1-methyl-1H-pyrazol-4-yl)amino)pyrimidin-4-yl)amino)phenyl)acrylamide]
- GI50 [1]: 7.34 µM
- IC50 (A431 cells): 3.13 µM

SMILES: C=CC(=O)Nc1ccc(F)c(Nc2nc(Nc3cnn(C)c3)ncc2-c2ccc3c(c2)OCCO3)c1 [Compound 111, N-(3-((5-(2,3-dihydrobenzo[b][1,4]dioxin-6-yl)-2-((1-methyl-1H-pyrazol-4-yl)amino)pyrimidin-4-yl)amino)-4-fluorophenyl)acrylamide]
- GI50 [1]: 1.08 µM
- IC50 (A431 cells): 0.164 µM
